The source of these data is patent publication US7358359B2, “Antibacterial agents” (University of Washington, priority 2003, dated 2008).

≈ marks a conversion by molar mass, not a printed value. Read-outs that look alike come from different tables or passages of the source.

Holding throughout (type): cell-based
The subject of experiment [1] is Pseudomonas aeruginosa cystic fibrosis isolate 3198. Nature of the experiment: MIC vs cystic fibrosis isolate of P. aeruginosa 3198 (sensitive to most antibacterials). Particulars: strain 3198, Sensitive, comparator antibacterials. Here is the method:
(§1) Bacterial isolates were cultivated from −70° C. frozen stocks by two consecutive overnight passages at 35° C. in ambient air on 5% blood agar (Remel, Lenexa, Kans.). Clinical isolates tested were from a collection composed of isolates collected during clinical trials and recent clinical isolates obtained from various geographically diverse hospitals in the US. Quality control and primary panel strains were from the American Type Culture Collection (ATCC; Rockville, Md.), with the exception of P. aeruginosa PAO200, a strain with a deletion of the mexABoprM genes that was received from Dr. H. Schweizer.
(§2) Minimum Inhibitory Concentrations (MICs) were determined by the broth microdilution method in accordance with the National Committee for Clinical Laboratory Standards (NCCLS) guidelines. In brief, organism suspensions were are adjusted to a 0.5 McFarland standard to yield a final inoculum between 3×10^5 and 7×10^5 colony-forming units (CFU)/mL. Drug dilutions and inocula were made in sterile, cation adjusted Mueller-Hinton Broth (Remel). An inoculum volume of 100 μl was added to wells containing 100 μl of broth with 2-fold serial dilutions of drug. All inoculated microdilution trays were incubated in ambient air at 35° C. for 18-24 hours. Following incubation, the lowest concentration of the drug that prevented visible growth was recorded as the MIC.

Experiment [2] relates to Pseudomonas aeruginosa cystic fibrosis isolate 3236. Nature of the experiment: MIC vs cystic fibrosis isolate of P. aeruginosa 3236 (sensitive to most antibacterials). Particulars: strain 3236, Sensitive, comparator antibacterials. Here is the method:
as §1, §2

Experiment [3] has as its system Pseudomonas aeruginosa cystic fibrosis isolate 2196. Nature of the experiment: MIC vs cystic fibrosis isolate of P. aeruginosa 2196 (resistant to ciprofloxacin). The settings on record: strain 2196, Cipro R, comparator antibacterials. Here is the method: as §1, §2
In experiment [4] the test system is Pseudomonas aeruginosa cystic fibrosis isolate 3224. Nature of the experiment: MIC vs cystic fibrosis isolate of P. aeruginosa 3224. The settings on record: strain 3224, Tobra R, comparator antibacterials. Here is the method: as §1, §2
For experiment [5], the system named is Pseudomonas aeruginosa cystic fibrosis isolate 3317. Nature of the experiment: MIC vs cystic fibrosis isolate of P. aeruginosa 3317 (resistant to aztreonam). The settings on record: strain 3317, Aztr. R, comparator antibacterials. Here is the method: as §1, §2
The subject of experiment [6] is Pseudomonas aeruginosa cystic fibrosis isolate 1145. Nature of the experiment: microbe, parasite or virus in culture. The settings on record: strain 1145, MDR, comparator antibacterials, read-out: MIC. Here is the method: as §1, §2
Experiment [7] concerns Pseudomonas aeruginosa cystic fibrosis isolate 3206. Nature of the experiment: microbe, parasite or virus in culture. Particulars: strain 3206, MDR, comparator antibacterials, read-out: MIC. Here is the method: as §1, §2
In experiment [8] the test system is non-CF clinical isolates of P. aeruginosa. Briefly: MIC vs non-CF clinical isolates of P. aeruginosa. Particulars: Pseudomonas aeruginosa, comparator antibacterials. Here is the method:
as §1, with “Schweizer. […] Strain Z61 (ATCC 35151) is also hypersusceptible to antibacterials. It is thought that the hypersusceptibility of this strain is the result of increased permeability of its outer membrane (Angus B L et al, Antimicrobial Agents and Chemotherapy 1982 21,299-309: Outer membrane permeability in Pseudomonas aeruginosa: Comparison of a wild-type with an antibacterial-supersusceptible mutant).” for “Schweizer.”
as §2, with “MIC. Performance of the assay was monitored by the use of laboratory quality-control strains against tobramycin, that has a defined MIC spectrum, in accordance with NCCLS guidelines.” for “MIC.”

Experiment [9] deals with Acinetobacter calcoaceticus. Briefly: MIC vs non-fermenting organisms: Acinetobacter calcoaceticus. Particulars: Acinet. calc., comparator antibacterials. Here is the method: as §1, §2
In experiment [10] the test system is Alcaligenes xylosoxidans. Nature of the experiment: MIC vs non-fermenting organisms: Alcaligenes xylosoxidans. The settings on record: Achromobacter xylosoxidans; Alcal. xyl; comparator antibacterials. Here is the method: as §1, §2
The test system of experiment [11] is Burkholderia cepacia. Nature of the experiment: MIC vs non-fermenting organisms: Burkholderia cepacia. The settings on record: B. cepacia, comparator antibacterials. Here is the method:
as §1, §2

The test system of experiment [12] is Stenotrophomonas maltophilia. Briefly: MIC vs non-fermenting organisms: Stenotrophomonas maltophilia. Particulars: S. malt., comparator antibacterials. Here is the method:
as §1, §2

In experiment [13] the test system is Enterobacter cloacae. Briefly: MIC vs enteric organisms: Enterobacter cloacae. The settings on record: E. clo., comparator antibacterials. Here is the method: as §1, §2
The test system of experiment [14] is Escherichia coli. Briefly: MIC vs enteric organisms: Escherichia coli clinical isolates. Here is the method: as §1, §2
For experiment [15], the system named is Klebsiella pneumoniae. Nature of the experiment: MIC vs enteric organisms: Klebsiella pneumoniae. Particulars: K. pneu., comparator antibacterials. Here is the method: as §1, §2
Experiment [16] concerns Klebsiella oxytoca. Nature of the experiment: MIC vs enteric organisms: Klebsiella oxytoca. Particulars: K. oxy., comparator antibacterials. Here is the method: as §1, §2
Experiment [17] concerns Proteus mirabilis. Nature of the experiment: MIC vs enteric organisms: Proteus mirabilis. Particulars: P. mir., comparator antibacterials. Here is the method: as §1, §2
Experiment [18] has as its system Serratia marcescens. Briefly: MIC vs enteric organisms: Serratia marcescens. The settings on record: S. marc., comparator antibacterials. Here is the method:
as §1, §2

For experiment [19], the system named is Pseudomonas aeruginosa cystic fibrosis isolate 3232. Nature of the experiment: MIC vs cystic fibrosis isolate of P. aeruginosa 3232 (Ceftaz. R). The settings on record: strain 3232, Ceftaz. R, comparator antibacterials.
For experiment [20], the system named is Enterobacter aerogenes. Nature of the experiment: MIC vs enteric organisms: Enterobacter aerogenes. Particulars: Klebsiella aerogenes; E. aer.; comparator antibacterials. Here is the method:
as §1, §2

The mark [21] stands for this setting: Burkholderia cepacia, read-out: MIC.
Where [22] appears, read: E. coli 1619, comparator antibacterials.
Setting [23] is: Escherichia coli, E. coli 1619, comparator antibacterials, read-out: MIC.
The mark [24] stands for this setting: Escherichia coli, E. coli 2788, comparator antibacterials, read-out: MIC.
Where [25] appears, read: Stenotrophomonas maltophilia, read-out: MIC.

In the case of `C[C@H]1[C@H](NC(=O)/C(=N\OC(C)(C)C(=O)O)c2csc(N)n2)C(=O)N1S(=O)(=O)O` [Aztreonam, aztreonam, reference compound], the MIC in experiment [1] was 1 µg/mL (≈ 2.3 µM); in experiment [2], 0.5 µg/mL (≈ 1.15 µM); in experiment [3], 1 µg/mL (≈ 2.3 µM); in experiment [4] it was 1 µg/mL (≈ 2.3 µM); in [5] it was 64 µg/mL (≈ 147 µM); in experiment [6], above 128 µg/mL. The MIC in experiment [7] was above 128 µg/mL; in experiment [8] (P. aer 12307) it was 16 µg/mL (≈ 36.7 µM); in experiment [8] (P. aer psa-6b), 32 µg/mL (≈ 73.5 µM); in [9], 32 µg/mL (≈ 73.5 µM); in [10], 32 µg/mL (≈ 73.5 µM); in [11] (setting [21]), 64 µg/mL (≈ 147 µM). Moreover, the MIC is 16 µg/mL (≈ 36.7 µM) in experiment [12]; at most 0.13 µg/mL in experiment [13]; 64 µg/mL (≈ 147 µM) in experiment [14] (setting [22]); 128 µg/mL (≈ 294 µM) in experiment [14] (setting [23]); at most 0.13 µg/mL in [14] (setting [24]); 2 µg/mL (≈ 4.59 µM) in experiment [15]. In addition, the MIC in experiment [16] is 0.5 µg/mL (≈ 1.15 µM); in experiment [17] it was at most 0.13 µg/mL; in [18], at most 0.13 µg/mL; in experiment [19], 1 µg/mL (≈ 2.3 µM).
On to `NC[C@H]1O[C@H](O[C@H]2[C@H](O)[C@@H](O[C@H]3O[C@H](CO)[C@@H](O)[C@H](N)[C@H]3O)[C@H](N)C[C@@H]2N)[C@H](N)C[C@@H]1O` [Tobramycin, tobramycin, reference compound], for which the MIC in experiment [1] was 2 µg/mL (≈ 4.28 µM); in [2], 0.5 µg/mL (≈ 1.07 µM); in experiment [3], 2 µg/mL (≈ 4.28 µM); in experiment [4] it was 64 µg/mL (≈ 137 µM); in experiment [5] it was 2 µg/mL (≈ 4.28 µM); in experiment [6], 8 to 32 µg/mL (≈ 17.1 to 68.4 µM). For the same molecule, the MIC is 8 µg/mL (≈ 17.1 µM) in [8] (P. aer 12307); 2 µg/mL (≈ 4.28 µM) in experiment [8] (P. aer psa-6b); 2 µg/mL (≈ 4.28 µM) in [9]; 64 µg/mL (≈ 137 µM) in experiment [10]; above 128 µg/mL in experiment [11]; 64 µg/mL (≈ 137 µM) in [11] (setting [21]). In addition, the MIC in [12] (setting [25]) was determined as 0.5 µg/mL (≈ 1.07 µM); in [20], 64 µg/mL (≈ 137 µM); in [13], 0.06 µg/mL (≈ 0.128 µM); in experiment [15], 64 µg/mL (≈ 137 µM); in [16], 1 µg/mL (≈ 2.14 µM); in experiment [17], 2 µg/mL (≈ 4.28 µM). For the same molecule, the MIC in [18] is 2 µg/mL (≈ 4.28 µM); in experiment [19], 1 µg/mL (≈ 2.14 µM).
`C[C@@H](O)[C@H]1C(=O)N2C(C(=O)O)=C(S[C@@H]3CN[C@H](C(=O)N(C)C)C3)[C@H](C)[C@H]12` [Meropenem, meropenem, reference compound]: the MIC in experiment [8] (P. aer 12307) is 0.5 µg/mL (≈ 1.3 µM); in experiment [8] (P. aer psa-6b), 0.25 µg/mL (≈ 0.652 µM); in [9], 4 µg/mL (≈ 10.4 µM); in experiment [10] it was 0.5 µg/mL (≈ 1.3 µM); in [11] (setting [21]), 4 µg/mL (≈ 10.4 µM); in experiment [12] (setting [25]) it was 64 µg/mL (≈ 167 µM). The MIC was 2 µg/mL (≈ 5.22 µM) in [20]; at most 0.06 µg/mL in [13]; 0.13 µg/mL (≈ 0.339 µM) in experiment [14] (setting [22]); 0.25 µg/mL (≈ 0.652 µM) in experiment [14] (setting [23]); at most 0.06 µg/mL in experiment [14] (setting [24]); 0.13 µg/mL (≈ 0.339 µM) in [15]. Also, the MIC was at most 0.06 µg/mL in [16], 0.5 µg/mL (≈ 1.3 µM) in experiment [17] and 0.13 µg/mL (≈ 0.339 µM) in experiment [18].
Take `CC(C)(O/N=C(\C(=O)N[C@@H]1C(=O)N2C(C(=O)[O-])=C(C[n+]3ccccc3)CS[C@H]12)c1csc(N)n1)C(=O)O` [Ceftazidime, ceftazidime, reference compound]: the MIC is 2 µg/mL (≈ 3.66 µM) in [1]; 0.25 µg/mL (≈ 0.457 µM) in experiment [2]; 2 µg/mL (≈ 3.66 µM) in experiment [3]; 2 µg/mL (≈ 3.66 µM) in experiment [4]; 4 µg/mL (≈ 7.32 µM) in experiment [5]; above 128 µg/mL in [6]. For the same molecule, the MIC was above 128 µg/mL in experiment [7]; 4 µg/mL (≈ 7.32 µM) in [8] (P. aer 12307); 64 µg/mL (≈ 117 µM) in [8] (P. aer psa-6b); 16 µg/mL (≈ 29.3 µM) in [9]; 1 µg/mL (≈ 1.83 µM) in experiment [10]; 4 µg/mL (≈ 7.32 µM) in [11]. The MIC is 8 µg/mL (≈ 14.6 µM) in experiment [11] (setting [21]); 1 µg/mL (≈ 1.83 µM) in experiment [12] (setting [25]); 32 µg/mL (≈ 58.5 µM) in experiment [20]; 0.25 µg/mL (≈ 0.457 µM) in experiment [13]; above 128 µg/mL in [14] (Escherichia coli); 0.25 µg/mL (≈ 0.457 µM) in experiment [14] (setting [24]). Further, the MIC was 8 µg/mL (≈ 14.6 µM) in [15]; 0.25 µg/mL (≈ 0.457 µM) in experiment [16]; at most 0.13 µg/mL in [17]; 0.25 µg/mL (≈ 0.457 µM) in [18]; 64 µg/mL (≈ 117 µM) in experiment [19].
For the molecule `CO/N=C(\C(=O)N[C@@H]1C(=O)N2C(C(=O)[O-])=C(C[N+]3(C)CCCC3)CS[C@H]12)c1csc(N)n1` [Cefepime, cefepime, reference compound], the MIC is 4 µg/mL (≈ 8.32 µM) in experiment [1]; 2 µg/mL (≈ 4.16 µM) in [2]; 2 µg/mL (≈ 4.16 µM) in experiment [3]; 8 µg/mL (≈ 16.6 µM) in experiment [4]; 8 µg/mL (≈ 16.6 µM) in experiment [5]; above 128 µg/mL in [6]. Also, the MIC in experiment [7] is 32 µg/mL (≈ 66.6 µM); in experiment [8] (P. aer 12307) it was 2 µg/mL (≈ 4.16 µM); in experiment [8] (P. aer psa-6b), 8 µg/mL (≈ 16.6 µM); in [9], 8 µg/mL (≈ 16.6 µM); in experiment [10], 8 µg/mL (≈ 16.6 µM); in experiment [11], 16 µg/mL (≈ 33.3 µM). For the same molecule, the MIC was 32 µg/mL (≈ 66.6 µM) in experiment [11] (setting [21]); at most 0.13 µg/mL in experiment [13]; at most 0.13 µg/mL in [14] (setting [24]); 8 µg/mL (≈ 16.6 µM) in [15]; at most 0.13 µg/mL in [16]; at most 0.13 µg/mL in experiment [17]. Besides, the MIC is at most 0.13 µg/mL in experiment [18] and 2 µg/mL (≈ 4.16 µM) in experiment [19].
